In patent US20130102595A1 (Curis, Inc., priority 2011, published 2013):

Tests used:
[1] = test system: HDACs (HeLa cell nuclear extracts); assay: HDAC enzymatic activity, Biomol Color de Lys system; type: biochemical; conditions: 1 hour, 25° C.
Experimental: (E) an In Vitro Assay which Determines the Ability of a Test Compound to Inhibit HDAC Enzymatic Activity.
HDAC inhibitory activity was assessed using the Biomol Color de Lys system (AK-500, Biomol, Plymouth Meeting, Pa.). Briefly, HeLa cell nuclear extracts were used as a source of HDACs. Different concentrations of test compounds were serially diluted in dimethylsulphoxide (DMSO) and added to HeLa cell nuclear extracts in the presence of a colorimetric artificial substrate. Final assay condition contained 50 mM Tris/Cl, pH 8.0, 137 mM NaCl, 2.7 mM KCl and 1 mM MgCl2. Reactions were carried in room temperature (25° C.) for 1 hour before addition of developer for termination. Relative enzyme activity was measured in the WALLAC Victor II 1420 microplate reader as fluorescence intensity (excitation: 350-380 nm; emission: 440-460 nm). Data were analyzed using GraphPad Prism (v4.0a) with a sigmoidal dose response curve fitting for IC50 calculation.

PI3Kα (p110α/p85α) = target: T1, PI3Kα (p110α/p85α) (Homo sapiens, UniProt P42336); assay: PI3Kα ADP-Glo assay; type: biochemical; conditions: 20 μM PIP2, 10 μM ATP, 30 minutes
T1 construct: GST (N); made in house; host or cells: Baculovirus-infected Sf9 cells
Experimental: (A) an In Vitro Assay which Determines the Ability of a Test Compound to Inhibit PI3Kα.
Activity of PI3Kα was measured using ADP-Glo assay from Promega. PI3Kα, a complex of N-terminal GST-tagged recombinant full-length human p110α (GenBank, Accession No. U79143) and N-terminal His tagged recombinant full length human p85a (GenBank Accession No. XM—043865) were co-expressed in a Baculovirus infected Sf9 cell expression system. The ADP-Glo assay was performed to measure the amount of ADP generated from ATP hydrolysis coupled with PIP2 phosphorylation by the purified recombinant PI3Kα (p110α/p85α). PI3Kα was incubated with 20 μM PIP2 substrate in the reaction buffer (50 mM HEPES, pH 7.4, 150 mM NaCl, 5 mM MgCl2, 1 mM DTT, 3 uM Naorthovanadate, 10 μM ATP and 0.5% DMSO) for 30 minutes at room temperature. The ADP generated was then detected by ADP-Glo assay from Promega, a luminescent ADP detection assay. The ADP-Glo assay is performed in two steps; first, after the kinase reaction, ADP-Glo Reagent is added to terminate the kinase reaction and deplete the remaining ATP. Second, the Kinase Detection Reagent is added to simultaneously convert ADP to ATP and allow the newly synthesized ATP to be measured using a luciferase/luciferin reaction.

T1 sequence (P42336 whole entry): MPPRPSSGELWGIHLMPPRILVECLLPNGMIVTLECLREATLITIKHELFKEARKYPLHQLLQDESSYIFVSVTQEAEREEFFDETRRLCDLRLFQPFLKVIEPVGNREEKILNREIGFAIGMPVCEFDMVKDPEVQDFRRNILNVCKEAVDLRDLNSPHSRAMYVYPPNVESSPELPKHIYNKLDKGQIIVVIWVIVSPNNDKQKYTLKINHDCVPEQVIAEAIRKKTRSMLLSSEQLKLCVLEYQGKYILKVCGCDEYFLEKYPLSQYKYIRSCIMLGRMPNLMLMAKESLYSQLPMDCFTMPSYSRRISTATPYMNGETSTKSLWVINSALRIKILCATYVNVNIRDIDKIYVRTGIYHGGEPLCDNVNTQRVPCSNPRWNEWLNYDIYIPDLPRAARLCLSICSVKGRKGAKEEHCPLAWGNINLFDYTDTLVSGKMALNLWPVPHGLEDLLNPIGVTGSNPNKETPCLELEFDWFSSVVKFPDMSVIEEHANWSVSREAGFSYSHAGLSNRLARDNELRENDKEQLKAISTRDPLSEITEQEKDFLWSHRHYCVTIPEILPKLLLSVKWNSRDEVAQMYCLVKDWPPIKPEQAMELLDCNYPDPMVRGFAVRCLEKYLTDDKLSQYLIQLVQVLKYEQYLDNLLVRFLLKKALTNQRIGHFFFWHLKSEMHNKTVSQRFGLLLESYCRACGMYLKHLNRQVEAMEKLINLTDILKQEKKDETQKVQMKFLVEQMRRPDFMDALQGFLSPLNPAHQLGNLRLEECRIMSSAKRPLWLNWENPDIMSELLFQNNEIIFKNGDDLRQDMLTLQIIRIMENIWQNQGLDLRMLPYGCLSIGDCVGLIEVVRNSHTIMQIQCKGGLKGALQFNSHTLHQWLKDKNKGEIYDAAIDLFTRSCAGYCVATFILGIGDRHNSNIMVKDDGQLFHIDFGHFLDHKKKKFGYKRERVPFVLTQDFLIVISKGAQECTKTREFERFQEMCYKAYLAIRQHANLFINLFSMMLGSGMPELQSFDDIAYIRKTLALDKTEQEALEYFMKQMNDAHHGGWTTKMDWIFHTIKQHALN
T1 sequence (P27986 whole entry partner): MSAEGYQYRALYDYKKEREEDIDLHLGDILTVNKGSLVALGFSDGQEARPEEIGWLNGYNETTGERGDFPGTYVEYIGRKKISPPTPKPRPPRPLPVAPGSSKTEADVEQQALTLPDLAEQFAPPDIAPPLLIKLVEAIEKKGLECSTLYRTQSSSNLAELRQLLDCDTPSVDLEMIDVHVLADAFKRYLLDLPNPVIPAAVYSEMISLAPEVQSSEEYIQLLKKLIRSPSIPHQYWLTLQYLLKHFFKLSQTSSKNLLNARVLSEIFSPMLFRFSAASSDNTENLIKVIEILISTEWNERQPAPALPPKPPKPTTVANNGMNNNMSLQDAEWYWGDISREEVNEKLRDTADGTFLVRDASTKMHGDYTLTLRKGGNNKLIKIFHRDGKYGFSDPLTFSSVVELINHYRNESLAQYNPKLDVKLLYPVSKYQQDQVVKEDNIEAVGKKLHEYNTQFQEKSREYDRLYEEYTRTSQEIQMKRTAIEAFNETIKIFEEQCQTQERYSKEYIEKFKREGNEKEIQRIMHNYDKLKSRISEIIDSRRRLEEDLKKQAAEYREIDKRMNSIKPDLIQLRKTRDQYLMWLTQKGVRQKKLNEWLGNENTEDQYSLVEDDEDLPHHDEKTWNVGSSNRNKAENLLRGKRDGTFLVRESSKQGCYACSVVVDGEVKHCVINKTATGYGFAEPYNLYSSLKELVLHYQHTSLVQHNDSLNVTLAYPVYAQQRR

`CS(=O)(=O)N1CCN(Cc2cc3nc(-c4cccc5c4cnn5CCCCC(=O)NO)nc(N4CCOCC4)c3s2)CC1` [Compound 3, N-hydroxy-5-(4-(6-((4-(methylsulfonyl)piperazin-1-yl)methyl)-4-morpholinothieno[3,2-d]pyrimidin-2-yl)-1H-indazol-1-yl)pentanamide] showed a melting point of 139 to 143 °C.

For `CS(=O)(=O)N1CCN(Cc2cc3nc(-c4cccc5nn(CCCCC(=O)NO)cc45)nc(N4CCOCC4)c3s2)CC1` [Compound 7, N-hydroxy-5-(4-(6-((4-(methylsulfonyl)piperazin-1-yl)methyl)-4-morpholinothieno[3,2-d]pyrimidin-2-yl)-2H-indazol-2-yl)pentanamide], the IC50 [1] was 0.1 to 1 µM, the IC50 (PI3Kα (p110α/p85α)) was 0.1 to 1 µM and the melting point was 146 to 169 °C.

For `CS(=O)(=O)N1CCN(Cc2cc3nc(-c4cccc5nn(CCCCCC(=O)NO)cc45)nc(N4CCOCC4)c3s2)CC1` [Compound 8, N-hydroxy-6-(4-(6-((4-(methylsulfonyl)piperazin-1-yl)methyl)-4-morpholinothieno[3,2-d]pyrimidin-2-yl)-2H-indazol-2-yl)hexanamide], the IC50 [1] was < 0.1 µM, the IC50 (PI3Kα (p110α/p85α)) was > 10 µM and the melting point was 124 to 125 °C.

`O=C(CCCCN1CCN(Cc2cc3nc(-c4cccc5[nH]ncc45)nc(N4CCOCC4)c3s2)CC1)NO` [Compound 11, 5-(4-((2-(1H-indazol-4-yl)-4-morpholinothieno[3,2-d]pyrimidin-6-yl)methyl)piperazin-1-yl)-N-hydroxypentanamide] gave an IC50 [1] of 1 to 10 µM and a melting point of 125 to 127 °C.

In the case of `CN(Cc1cc2nc(-c3cccc(CCO)c3)nc(N3CCOCC3)c2s1)c1ncc(C(=O)NO)cn1` [Compound 306], the IC50 [1] is reported as < 0.1 µM and the IC50 (PI3Kα (p110α/p85α)) is reported as 0.1 to 1 µM.

With `Nc1ccc(-c2nc(N3CCOCC3)c3sc(S(=O)(=O)NCC4CCN(c5ncc(C(=O)NO)cn5)CC4)cc3n2)cc1` [Compound 309] the IC50 [1] was 0.1 to 1 µM and the IC50 (PI3Kα (p110α/p85α)) was 0.1 to 1 µM.

With `Cc1ncc(-c2nc(N3CCOCC3)c3sc(CN(CCO)c4ncc(C(=O)NO)cn4)cc3n2)s1` [Compound 312] the IC50 [1] was < 0.1 µM and the IC50 (PI3Kα (p110α/p85α)) was 0.1 to 1 µM.

In the case of `CN(Cc1cc2nc(-c3cccc4[nH]c(=S)[nH]c34)nc(N3CCOCC3)c2s1)c1ncc(C(=O)NO)cn1` [Compound 315], the IC50 [1] is reported as < 0.1 µM and the IC50 (PI3Kα (p110α/p85α)) is reported as < 0.1 µM.

In the case of `CN(Cc1cc2nc(-c3cccc4[nH]c(=O)sc34)nc(N3CCOCC3)c2s1)c1ncc(C(=O)NO)cn1` [Compound 317], the IC50 [1] is reported as < 0.1 µM and the IC50 (PI3Kα (p110α/p85α)) is reported as < 0.1 µM.

Work on `CCCc1nc2cc(/C=C/C(=O)NO)ccc2n1CCN(C)Cc1cc2nc(-c3ccc(NC)nc3)nc(N3CCOCC3)c2s1` [Compound 322] yielded an IC50 [1] of 0.1 to 1 µM and an IC50 (PI3Kα (p110α/p85α)) of 0.1 to 1 µM.

For `CCCc1nc2cc(/C=C/C(=O)NO)ccc2n1CCNCc1cc2nc(-c3ccc(NC)nc3)nc(N3CCOCC3)c2s1` [Compound 323], the IC50 [1] was 0.1 to 1 µM and the IC50 (PI3Kα (p110α/p85α)) was < 0.1 µM.

`CCCc1nc2cc(/C=C/C(=O)NO)ccc2n1CCN(C)Cc1cc2nc(-c3ccc(N)cc3)nc(N3CCOCC3)c2s1` [Compound 324] gave an IC50 [1] of 0.1 to 1 µM and an IC50 (PI3Kα (p110α/p85α)) of 0.1 to 1 µM.

Work on `CCCc1nc2cc(/C=C/C(=O)NO)ccc2n1CCNCc1cc2nc(-c3ccc(N)cc3)nc(N3CCOCC3)c2s1` [Compound 325] yielded an IC50 [1] of 0.1 to 1 µM and an IC50 (PI3Kα (p110α/p85α)) of 1 to 10 µM.

`Cn1c(CNCc2cc3nc(-c4ccc(N)cc4)nc(N4CCOCC4)c3s2)nc2cc(/C=C/C(=O)NO)ccc21` [Compound 326] showed an IC50 [1] of 0.1 to 1 µM and an IC50 (PI3Kα (p110α/p85α)) of 0.1 to 1 µM.

For `CN(Cc1cc2nc(-c3ccc(N)cc3)nc(N3CCOCC3)c2s1)Cc1nc2cc(/C=C/C(=O)NO)ccc2n1C` [Compound 327], the IC50 [1] was 0.1 to 1 µM and the IC50 (PI3Kα (p110α/p85α)) was 1 to 10 µM.

For `CNc1ccc(-c2nc(N3CCOCC3)c3sc(CNCc4nc5cc(/C=C/C(=O)NO)ccc5n4C)cc3n2)cn1` [Compound 328], the IC50 [1] was 0.1 to 1 µM and the IC50 (PI3Kα (p110α/p85α)) was < 0.1 µM.

For `CNc1ccc(-c2nc(N3CCOCC3)c3sc(CN(C)Cc4nc5cc(/C=C/C(=O)NO)ccc5n4C)cc3n2)cn1` [Compound 329], the IC50 [1] was 0.1 to 1 µM and the IC50 (PI3Kα (p110α/p85α)) was < 0.1 µM.
